Literature values in US20180271919A1, “PROBIOTIC COMPOSITION AT LEAST COMPRISING BIFIDOBACTERIUM BIFIDUM W23 AND CAPABLE OF CONTROLLING INTESTINAL BARRIER FUNCTION” (Winclove Holding B.V., priority 2015, published 2018).

Test system: patients with schizophrenia
Conditions: patients with schizophrenia prescribed the drug

- Rate of metabolic syndrome: 52%
SMILES: CN1CCN(C2=Nc3cc(Cl)ccc3Nc3ccccc32)CC1 [clozapine]
